Data from PubChem BioAssay (NCI).
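Step 1: Grow cells in 96-well plates. Step 2: Expose to compound for 48 hours at 5 concentrations. Step 3: Interpolate endpoints linearly; if unreached, use highest concentration. The concentration for 50% growth inhibition is given as GI50. At the TGI there is no net growth.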

Assays:
Test in all cases: NCI tumour cell line growth inhibition, 48 h
[1] = system: SK-OV-3 ovarian
[2] = system: NCI-H226 lung
[3] = system: EKVX NSCLC
[4] = system: SF-268 CNS
[5] = system: NCI-H522 lung
[6] = system: HCC-2998 colon
[7] = system: NCI-H23 lung
[8] = system: UACC-62 melanoma
[9] = system: MDA-MB-231 breast
[10] = system: MDA-MB-435

Structure (SMILES) | TGI [1] | TGI [2] | TGI [3] | TGI [4] | TGI [5] | TGI [6] | TGI [7] | TGI [8] | GI50 [1] | GI50 [9] | TGI [9] | GI50 [2] | GI50 [3] | GI50 [10] | TGI [10] | GI50 [4] | GI50 [5] | GI50 [8] | GI50 [7] | GI50 [6]
O=C(O)Cc1cc(=O)[nH]c2c1/C(=N/O)CCC2 | > 100 µM | > 100 µM | > 100 µM | > 100 µM | > 100 µM | > 100 µM | > 100 µM | – | – | – | – | – | – | – | – | – | – | – | – | –
O=C(Nc1ccc(Cl)cc1Cl)C1C(=O)C(=O)N(c2ccc(Cl)cc2Cl)C1=O (stereo not given) | > 100 µM | 84.1 µM | > 100 µM | > 100 µM | > 100 µM | > 100 µM | > 100 µM | > 100 µM | – | – | – | – | – | – | – | – | – | – | – | –
CC(=O)CC(N)=O | > 100 µM | > 100 µM | > 100 µM | > 100 µM | > 100 µM | > 100 µM | > 100 µM | > 100 µM | – | – | – | – | – | – | – | – | – | – | – | –
COc1ccc(NC(=O)CC/C(CC(=O)C(C)(C)C)=N\NC(=O)C(=O)NN)cc1 | > 100 µM | > 100 µM | > 100 µM | > 100 µM | > 100 µM | > 100 µM | > 100 µM | > 100 µM | – | – | – | – | – | – | – | – | – | – | – | –
C=C(C#N)C1OCC2OC(C)(C)OC21 (stereo not given) | > 100 µM | – | 60 µM | 52.5 µM | – | 83.6 µM | 34.8 µM | 31.9 µM | – | – | – | – | – | – | – | – | – | – | – | –
CCOC(=O)/C(=C\c1ccc(N(CCC#N)CCC#N)cc1)NC(=O)c1cc([N+](=O)[O-])ccc1Cl | > 100 µM | > 100 µM | > 100 µM | > 100 µM | > 100 µM | > 100 µM | > 100 µM | > 100 µM | – | – | – | – | – | – | – | – | – | – | – | –
COc1ccc(/C(=N\NC(=O)C(=O)NN)C(c2ccc(OC)cc2)C2(O)C(=O)Nc3ccccc32)cc1 (stereo not given) | > 100 µM | > 100 µM | > 100 µM | > 100 µM | > 100 µM | – | > 100 µM | > 100 µM | – | – | – | – | – | – | – | – | – | – | – | –
COC(=O)C1=C(O)c2cc(-c3ccccc3)c(-c3ccccc3)c(C#N)c2NC(=O)C1 | – | – | > 100 µM | – | – | > 100 µM | > 100 µM | > 100 µM | – | – | – | – | – | – | – | – | – | – | – | –
Cc1cccc(C)c1CO | > 100 µM | > 100 µM | > 100 µM | > 100 µM | > 100 µM | > 100 µM | > 100 µM | > 100 µM | – | – | – | – | – | – | – | – | – | – | – | –
O=C(O)NC(c1ccccc1)C(NC(=O)c1ccccc1)c1ccccc1 (stereo not given) | – | – | > 100 µM | > 100 µM | – | – | > 100 µM | > 100 µM | – | – | – | – | – | – | – | – | – | – | – | –
CC1=C(C(=O)Nc2ccc(Cl)c(Cl)c2)C(c2cccc(Cl)c2)NC(=O)N1 (stereo not given) | 20.7 µM | 18.6 µM | 16.2 µM | 17.4 µM | 18.5 µM | – | 28.5 µM | 12.3 µM | 10.6 µM | 4.44 µM | 11.7 µM | 7.69 µM | 7.84 µM | 0.464 µM | 1.92 µM | 7.85 µM | 9.53 µM | 5.9 µM | 12.7 µM | –
O=C1[C@H]2ON(c3ccccc3)C(c3ccccc3)[C@H]2C(=O)N1c1ccc(Cc2ccc(N3C(=O)[C@@H]4ON(c5ccccc5)C(c5ccccc5)[C@@H]4C3=O)cc2)cc1 (stereo not given in full) | > 100 µM | > 100 µM | – | > 100 µM | – | > 100 µM | > 100 µM | > 100 µM | – | – | – | – | – | – | – | – | – | – | – | –
C#CCOCn1cnc2c(Sc3c([N+](=O)[O-])ncn3C)ncnc21 | > 100 µM | > 100 µM | > 100 µM | > 100 µM | > 100 µM | > 100 µM | > 100 µM | > 100 µM | – | – | – | – | – | – | – | – | – | – | – | –
CC(=C/C=C/C=C(C)\C=C\C=C(\C)C(=O)O)/C=C/C=C(/C)C(=O)O | > 100 µM | > 100 µM | – | > 100 µM | > 100 µM | – | > 100 µM | > 100 µM | – | – | > 100 µM | – | – | – | > 100 µM | – | – | – | – | –
CC(=O)[CH-]C(=O)c1ccccc1.CC(=O)[CH-]C(=O)c1ccccc1.CC(C)CCCC(C)[C@H]1CCC2[C@@H]3CC=C4C[C@@H]([O-])CC[C@]4(C)C3CC[C@@]21C.CC(C)CCCC(C)[C@H]1CCC2[C@@H]3CC=C4C[C@@H]([O-])CC[C@]4(C)C3CC[C@@]21C.[Ti+4] (stereo not given in full) | > 100 µM | > 100 µM | – | > 100 µM | > 100 µM | > 100 µM | > 100 µM | > 100 µM | > 100 µM | – | – | > 100 µM | – | – | – | > 100 µM | > 100 µM | > 100 µM | > 100 µM | > 100 µM
CC(C)(C)CC(C)(C)c1cc2c(O)c(c1)Cc1cc(C(C)(C)CC(C)(C)C)cc(c1O)Cc1cc(C(C)(C)CC(C)(C)C)cc(c1O)Cc1cc(C(C)(C)CC(C)(C)C)cc(c1O)Cc1cc(C(C)(C)CC(C)(C)C)cc(c1O)C2 | – | – | > 100 µM | > 100 µM | > 100 µM | > 100 µM | > 100 µM | > 100 µM | – | – | – | – | – | – | – | – | – | – | – | –
O=C1C=CC(=O)C12CCc1ccccc12 | > 100 µM | > 100 µM | > 100 µM | > 100 µM | 33.2 µM | > 100 µM | > 100 µM | > 100 µM | – | – | – | – | – | – | – | – | – | – | – | –
O=C1c2ccccc2-c2oc(=O)c3ccccc3c21 | > 100 µM | > 100 µM | > 100 µM | – | > 100 µM | – | > 100 µM | > 100 µM | – | – | > 100 µM | – | – | – | > 100 µM | – | – | – | – | –
CN1CC(=O)N(C)c2ncn(Cc3ccccc3)c2C1=O | > 100 µM | – | > 100 µM | > 100 µM | – | > 100 µM | > 100 µM | > 100 µM | – | – | – | – | – | – | – | – | – | – | – | –
CN(C)CCNC(=O)c1cccc2nc3cc(Cl)ccc3nc12 | > 40.3 µM | 5.14 µM | 18.1 µM | – | > 100 µM | 10.7 µM | 5.26 µM | 9.67 µM | – | – | – | – | – | – | – | – | – | – | – | –
CC(=O)OC1CCn2nnc(CO)c21 (stereo not given) | > 100 µM | > 100 µM | > 100 µM | – | > 100 µM | > 100 µM | > 100 µM | > 100 µM | – | – | – | – | – | – | – | – | – | – | – | –
CC1=C(C(=O)Nc2cc(=O)n(C)c(=O)n2C)C(c2cccc([N+](=O)[O-])c2)C(C(=O)Nc2cc(=O)n(C)c(=O)n2C)=C(C)N1 | > 100 µM | > 100 µM | > 100 µM | > 100 µM | > 100 µM | > 100 µM | > 100 µM | – | – | – | – | – | – | – | – | – | – | – | – | –
COc1cc(OC)c(SSCCCCS(=O)O)c(OC)c1 | 38.6 µM | – | 31.3 µM | 44 µM | 21.1 µM | 42.4 µM | 30.5 µM | 27.9 µM | – | – | – | – | – | – | – | – | – | – | – | –
C[C@]12CCC(=O)C(O)=C1CC[C@@H]1C2CC[C@]2(C)NC(=O)CCC12 (stereo not given in full) | > 100 µM | > 100 µM | > 100 µM | > 100 µM | > 100 µM | – | > 100 µM | > 100 µM | – | – | – | – | – | – | – | – | – | – | – | –
